From US20230265151A1, “GIP/GLP1 CO-AGONIST COMPOUNDS” (priority 2020, published 2023)
Read-outs that look alike come from different tables or passages of the source. *1 amine or outer side, *2 acyl side, *3 side chain or, on linkers, in order; H or OH if unused. Where a SMILES comes first, the peptide text is derived from it. Side-chain parts run from the residue outwards. [ ]: non-standard residue; d: D form. The star is where a group is joined. αMePhe(2-F) = C[C@](N)(Cc1ccccc1F)C(=O)O; γGlu = O=C(O)[C@H](CCC(=O)[*:2])N[*:1]; C14 diacid = O=C(O)CCCCCCCCCCCCC(=O)*; αMeY = C[C@](N)(Cc1ccc(O)cc1)C(=O)O; αMeL = CC(C)C[C@](C)(N)C(=O)O; Orn = NCCC[C@H](N)C(=O)O; AEEA = NCCOCCOCC(=O)O; Aib = CC(C)(N)C(=O)O

Columns and labels:
Type in all cases: cell-based
hGCGR = biological target: T1, hGCGR (Homo sapiens, UniProt P47871); test: Functional cAMP formation (HTRF) in HEK-293 clonal cells expressing hGCGR, 0.1% bovine casein, without or with 1.0% human serum albumin; settings: read-out: hGCGR EC50, nM (SEM, n)
T1 construct: expressed in transfected cells
In short: (§1)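 Cells were stimulated with peptide for 30 min at 37° C, then intracellular cAMP was measured by competitive HTRF (665/620 nm ratio) and converted to nM using a cAMP standard curve. Relative EC50 and Emax came from four-parameter logistic fits of percent maximal response against peptide concentration.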

hGLP-1R = hGLP-1R (Homo sapiens, UniProt P43220); test: Functional cAMP formation (HTRF) in HEK-293 clonal cells expressing hGLP-1R, 0.1% bovine casein, without or with 1.0% human serum albumin; parameters: expressed in transfected cells; settings: 37° C.; for Emax: read-out: hGLP-1R Emax, % ± SEM; for EC50: cAMP, read-out: hGLP-1R EC50, nM (SEM, n)
In short: as §1

hGIPR = biological target: T2, hGIPR (Homo sapiens, UniProt P48546); test: Functional cAMP formation (HTRF) in HEK-293 clonal cells expressing hGIPR, 0.1% bovine casein, without or with 1.0% human serum albumin; settings: 37° C.; for EC50: read-out: hGIPR EC50, nM (SEM, n); for Emax: read-out: hGIPR Emax, % ± SEM
T2 construct: expressed in transfected cells
T2 sequence (P48546 22-466): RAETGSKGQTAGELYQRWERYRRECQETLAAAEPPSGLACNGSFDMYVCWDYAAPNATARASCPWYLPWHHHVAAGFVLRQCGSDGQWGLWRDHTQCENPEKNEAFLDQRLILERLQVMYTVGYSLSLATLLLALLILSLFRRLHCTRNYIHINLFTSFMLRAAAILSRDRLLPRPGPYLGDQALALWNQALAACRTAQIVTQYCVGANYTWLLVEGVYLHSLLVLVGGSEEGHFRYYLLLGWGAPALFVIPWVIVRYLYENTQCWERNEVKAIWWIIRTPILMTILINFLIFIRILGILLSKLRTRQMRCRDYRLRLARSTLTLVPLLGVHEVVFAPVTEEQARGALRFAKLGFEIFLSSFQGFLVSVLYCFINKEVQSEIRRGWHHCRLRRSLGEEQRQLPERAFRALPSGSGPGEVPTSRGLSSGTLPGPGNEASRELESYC
In short: as §1

[1] = cAMP, 37° C., 0.1% bovine casein (no human serum albumin), geometric mean
[2] = cAMP, 37° C., 0.1% bovine casein and 1.0% human serum albumin, geometric mean (SEM, n)
[3] = HEK293, cAMP, 0.1% bovine casein, percent of maximal response to GLP-1(7-36)NH2, arithmetic mean
[4] = 0.1% bovine casein (no human serum albumin), geometric mean
[5] = HEK293, cAMP, 0.1% bovine casein and 1.0% human serum albumin, percent of maximal response to GIP(1-42)NH2
[6] = cAMP, 0.1% bovine casein (no human serum albumin), geometric mean
[7] = cAMP, 0.1% bovine casein and 1.0% human serum albumin, geometric mean (SEM, n)

T1 sequence (P47871 26-477): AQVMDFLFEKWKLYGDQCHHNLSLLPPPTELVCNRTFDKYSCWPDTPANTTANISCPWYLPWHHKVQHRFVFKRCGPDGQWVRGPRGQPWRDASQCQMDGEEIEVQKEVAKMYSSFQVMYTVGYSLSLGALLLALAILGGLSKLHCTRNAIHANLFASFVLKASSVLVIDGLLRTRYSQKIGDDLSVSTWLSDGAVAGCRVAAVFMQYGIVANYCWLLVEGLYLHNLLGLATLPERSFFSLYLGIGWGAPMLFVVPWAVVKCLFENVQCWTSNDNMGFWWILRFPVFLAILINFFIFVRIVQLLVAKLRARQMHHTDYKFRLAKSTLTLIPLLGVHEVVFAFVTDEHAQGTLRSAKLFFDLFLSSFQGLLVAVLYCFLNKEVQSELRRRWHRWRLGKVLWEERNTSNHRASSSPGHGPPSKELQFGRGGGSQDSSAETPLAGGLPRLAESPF
Sequence of hGLP-1R (P43220 24-463): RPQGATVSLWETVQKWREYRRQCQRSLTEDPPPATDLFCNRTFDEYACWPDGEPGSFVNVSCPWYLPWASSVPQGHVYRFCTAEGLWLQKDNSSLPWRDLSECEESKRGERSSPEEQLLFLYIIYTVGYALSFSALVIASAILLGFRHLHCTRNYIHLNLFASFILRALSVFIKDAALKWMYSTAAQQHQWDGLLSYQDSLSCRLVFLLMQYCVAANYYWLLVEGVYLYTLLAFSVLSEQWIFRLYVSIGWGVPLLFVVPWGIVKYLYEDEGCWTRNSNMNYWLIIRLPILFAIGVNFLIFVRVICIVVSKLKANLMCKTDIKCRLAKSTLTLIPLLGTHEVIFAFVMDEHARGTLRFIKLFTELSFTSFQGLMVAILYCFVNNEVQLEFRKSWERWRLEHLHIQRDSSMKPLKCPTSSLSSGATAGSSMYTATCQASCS

SMILES | EC50 (hGCGR; 0.1% bovine casein and 1.0% human serum albumin, 37° C., geometric mean) | EC50 (hGCGR; cAMP, incubated at 37° C., 0.1% bovine casein (no human serum albumin), geometric mean) | Emax (hGLP-1R; HEK293, 0.1% bovine casein and 1.0% human serum albumin, percent of maximal response to GLP-1(7-36)NH2) | Emax (hGLP-1R; HEK293, percent of maximal response to GLP-1(7-36)NH2, 0.1% bovine casein, arithmetic mean) | EC50 (hGIPR; 0.1% bovine casein and 1.0% human serum albumin, geometric mean) | Emax (hGIPR; HEK293, 0.1% bovine casein and 1.0% human serum albumin, percent of maximal response to GIP(1-42)NH2) | Emax (hGIPR; HEK293, percent of maximal response to GIP(1-42)NH2, 0.1% bovine casein, arithmetic mean) | EC50 (hGCGR; [1]) | EC50 (hGCGR; [2]) | Emax (hGLP-1R; [3]) | EC50 (hGLP-1R; [4]) | EC50 (hGLP-1R; 0.1% bovine casein and 1.0% human serum albumin, geometric mean (SEM, n)) | Emax (hGIPR; [5]) | EC50 (hGIPR; [6]) | EC50 (hGIPR; [7]) | Emax (hGLP-1R; HEK293, cAMP, 0.1% bovine casein and 1.0% human serum albumin, percent of maximal response to GLP-1(7-36)NH2)
CC[C@H](C)[C@H](NC(=O)[C@H](CC(C)C)NC(=O)[C@](C)(Cc1ccc(O)cc1)NC(=O)[C@@H](CCC(=O)O)NC(=O)[C@@H](NC(=O)[C@H](Cc1ccccc1)NC(=O)[C@H](CCC(=O)O)NC(=O)C(C)(C)NC(=O)[C@H](CCC(N)=O)NC(=O)[C@H](C)NC(=O)[C@H](CCCCNC(=O)COCCOCCNC(=O)COCCOCCNC(=O)CC[C@H](NC(=O)CCCCCCCCCCCCC(=O)O)C(=O)O)NC(=O)[C@H](CCCN)NC(=O)[C@H](CC(=O)O)NC(=O)[C@H](CC(C)C)NC(=O)[C@](C)(CC(C)C)NC(=O)[C@@H](NC(=O)[C@H](CO)NC(=O)C1(NC(=O)[C@H](CC(=O)O)NC(=O)[C@H](CO)NC(=O)[C@@H](NC(=O)[C@](C)(Cc2ccccc2F)NC(=O)[C@@H](NC(=O)CNC(=O)[C@H](CCC(=O)O)NC(=O)C(C)(C)NC(=O)[C@@H](N)Cc2ccc(O)cc2)[C@@H](C)O)[C@@H](C)O)CCC1)[C@@H](C)CC)[C@@H](C)CC)C(=O)N[C@@H](CCC(=O)O)C(=O)NCC(=O)NCC(=O)N[C@@H](CCCCNC(=O)COCCOCCNC(=O)COCCOCCNC(=O)CC[C@H](NC(=O)CCCCCCCCCCCCC(=O)O)C(=O)O)C(=O)N[C@@H](CO)C(=O)N[C@@H](CO)C(=O)NCC(=O)N[C@@H](C)C(=O)N1CCC[C@H]1C(=O)N1CCC[C@H]1C(=O)N1CCC[C@H]1C(=O)N[C@@H](CO)C(N)=O [Example 95] | > 9950 nM | > 9950 nM | 84% | 86.9% | 4.68 nM | 86.9% | 97.3% |  |  |  |  |  |  |  |  | 
CC[C@H](C)[C@H](NC(=O)[C@H](CCCN)NC(=O)[C@H](CC(=O)O)NC(=O)[C@H](CC(C)C)NC(=O)[C@](C)(CC(C)C)NC(=O)[C@@H](NC(=O)C(C)(C)NC(=O)[C@H](Cc1ccncc1)NC(=O)[C@H](CC(=O)O)NC(=O)[C@H](CO)NC(=O)[C@@H](NC(=O)[C@](C)(Cc1ccccc1F)NC(=O)[C@@H](NC(=O)CNC(=O)[C@H](CCC(=O)O)NC(=O)C(C)(C)NC(=O)[C@@H](N)Cc1ccc(O)cc1)[C@@H](C)O)[C@@H](C)O)[C@@H](C)CC)C(=O)N[C@@H](C)C(=O)N[C@@H](CCC(N)=O)C(=O)NC(C)(C)C(=O)N[C@@H](CCC(=O)O)C(=O)N[C@@H](Cc1ccccc1)C(=O)N[C@H](C(=O)N[C@@H](CCCCNC(=O)COCCOCCNC(=O)COCCOCCNC(=O)COCCOCCNC(=O)CC[C@H](NC(=O)CCCCCCCCCCCCC(=O)O)C(=O)O)C(=O)N[C@@](C)(Cc1ccc(O)cc1)C(=O)N[C@@H](CC(C)C)C(=O)N[C@H](C(=O)N[C@@H](CCCCNC(=O)COCCOCCNC(=O)COCCOCCNC(=O)COCCOCCNC(=O)CC[C@H](NC(=O)CCCCCCCCCCCCC(=O)O)C(=O)O)C(=O)NCC(=O)NCC(=O)N1CCC[C@H]1C(=O)N[C@@H](CO)C(=O)N[C@@H](CO)C(=O)NCC(=O)N[C@@H](C)C(=O)N1CCC[C@H]1C(=O)N1CCC[C@H]1C(=O)N1CCC[C@H]1C(=O)N[C@@H](CO)C(N)=O)[C@@H](C)CC)[C@@H](C)CC [Example 342] |  |  |  |  |  |  |  | > 10100 nM | > 9950 nM | 113% | 0.191 nM | 13.6 nM | 89.3% | 0.0105 nM | 1.04 nM | 
CC[C@H](C)[C@H](NC(=O)[C@H](CC(C)C)NC(=O)[C@](C)(Cc1ccc(O)cc1)NC(=O)[C@H](CCCCNC(=O)CCOCCOCCOCCOCCOCCNC(=O)CC[C@H](NC(=O)CCCCCCCCCCCCC(=O)O)C(=O)O)NC(=O)[C@@H](NC(=O)[C@H](Cc1ccccc1)NC(=O)[C@H](CCCN)NC(=O)C(C)(C)NC(=O)[C@H](CCC(N)=O)NC(=O)[C@H](C)NC(=O)[C@H](CCC(N)=O)NC(=O)[C@H](CCCN)NC(=O)[C@H](CC(=O)O)NC(=O)[C@H](CC(C)C)NC(=O)[C@](C)(CC(C)C)NC(=O)[C@@H](NC(=O)C(C)(C)NC(=O)[C@H](Cc1ccncc1)NC(=O)[C@H](CC(=O)O)NC(=O)[C@H](CO)NC(=O)[C@@H](NC(=O)[C@](C)(Cc1ccccc1F)NC(=O)[C@@H](NC(=O)CNC(=O)[C@H](CCC(=O)O)NC(=O)C(C)(C)NC(=O)[C@@H](N)Cc1ccc(O)cc1)[C@@H](C)O)[C@@H](C)O)[C@@H](C)CC)[C@@H](C)CC)C(=O)N[C@@H](CCCCNC(=O)CCOCCOCCOCCOCCOCCNC(=O)CC[C@H](NC(=O)CCCCCCCCCCCCC(=O)O)C(=O)O)C(=O)NCC(=O)NCC(=O)N1CCC[C@H]1C(=O)N[C@@H](CO)C(=O)N[C@@H](CO)C(=O)NCC(=O)N[C@@H](C)C(=O)N1CCC[C@H]1C(=O)N1CCC[C@H]1C(=O)N1CCC[C@H]1C(=O)N[C@@H](CO)C(N)=O [Example 467] |  |  |  |  |  |  |  | > 10100 nM | > 10100 nM | 110% | 0.131 nM |  | 88.4% | 0.0113 nM | 0.35 nM | 97.9%
CC[C@H](C)[C@H](NC(=O)[C@H](CCCN)NC(=O)[C@H](CC(=O)O)NC(=O)[C@H](CC(C)C)NC(=O)[C@](C)(CC(C)C)NC(=O)[C@@H](NC(=O)C(C)(C)NC(=O)[C@H](Cc1ccc(O)cc1)NC(=O)[C@H](CC(=O)O)NC(=O)[C@H](CO)NC(=O)[C@@H](NC(=O)[C@](C)(Cc1ccccc1F)NC(=O)[C@@H](NC(=O)CNC(=O)[C@H](CCC(=O)O)NC(=O)C(C)(C)NC(=O)[C@@H](N)Cc1ccc(O)cc1)[C@@H](C)O)[C@@H](C)O)[C@@H](C)CC)C(=O)N[C@@H](C)C(=O)N[C@@H](CCC(N)=O)C(=O)NC(C)(C)C(=O)N[C@@H](CCCCNC(=O)COCCOCCNC(=O)CC[C@H](NC(=O)CCCCCCCCCCCCC(=O)O)C(=O)O)C(=O)N[C@@H](Cc1ccccc1)C(=O)N[C@H](C(=O)N[C@H](CCC(=O)O)C(=O)N[C@@](C)(Cc1ccc(O)cc1)C(=O)N[C@@H](CC(C)C)C(=O)N[C@H](C(=O)N[C@@H](CCC(=O)O)C(=O)NCC(=O)NCC(=O)N1CCC[C@H]1C(=O)N[C@@H](CO)C(=O)N[C@@H](CO)C(=O)NCC(=O)N[C@@H](C)C(=O)N1CCC[C@H]1C(=O)N1CCC[C@H]1C(=O)N1CCC[C@H]1C(=O)N[C@@H](CO)C(=O)N[C@@H](CCCCNC(=O)COCCOCCNC(=O)CC[C@H](NC(=O)CCCCCCCCCCCCC(=O)O)C(=O)O)C(N)=O)[C@@H](C)CC)[C@@H](C)CC [Example 371] (H-Y[Aib]EGT[αMePhe(2-F)]TSDY[Aib]I[αMeL]LD[Orn]IAQ[Aib]K([AEEA-γGlu-C14 diacid])FI[dE][αMeY]LIEGGPSSGAPPPSK([AEEA-γGlu-C14 diacid])-NH2) |  |  |  |  |  |  |  | > 9950 nM |  | 112% | 0.363 nM |  |  | 0.0209 nM |  | 
